# Experimental data reported in US9920056B2, “2-oxo-1,3,8-triazaspiro[4.5]decan-3-yl] carboxylic acid derivatives” (Eli Lilly and Company, priority 2015, dated 2018).
# How the values were obtained:
# mouse SSTR5 = target: T1, mouse SSTR5 (Mus musculus, UniProt O08858); experiment: Somatostatin binding assay (SPA, 125I-Somatostatin 14), mouse SSTR5 membranes; details: transiently expressed mouse SSTR5 membranes, 0.25 nM [125I]-Somatostatin 14
# T1 construct: expressed in transfected cells; host or cells: probably CHO ('CHO-SSTR5 receptors')
# T1 sequence (O08858 1-362): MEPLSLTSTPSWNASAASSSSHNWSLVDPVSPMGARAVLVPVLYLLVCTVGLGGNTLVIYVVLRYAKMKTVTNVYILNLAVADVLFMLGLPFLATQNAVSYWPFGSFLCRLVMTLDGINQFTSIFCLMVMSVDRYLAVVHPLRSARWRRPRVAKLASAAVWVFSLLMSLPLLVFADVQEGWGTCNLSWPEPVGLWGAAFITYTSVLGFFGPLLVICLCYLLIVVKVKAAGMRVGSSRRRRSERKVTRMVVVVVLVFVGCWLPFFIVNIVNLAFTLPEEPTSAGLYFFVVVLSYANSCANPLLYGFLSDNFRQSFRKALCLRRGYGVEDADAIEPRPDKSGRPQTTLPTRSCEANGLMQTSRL
# Method: (§1) The antagonistic effect of the compound of Example 2 can be evaluated in human and mouse SSTR5 binding assays utilizing a scintillation proximity assay (SPA) format for a concentration response curve (CRC) (^125I-Somatostatin 14 binding to CHO-SSTR5 receptors). Perform measurement of SSTR5 binding utilizing either human somatostatin 5 membranes (manufactured by Perkin Elmer (ES-522-M400UA)) at a concentration of 0.4 μg/well or transiently expressed mouse SSTR5 membranes (generated in-house using Lipofectamine 2000 according to the manufacture's protocol (Life Technologies)) at a concentration of 8 μg/well. Homogenize membranes or dilute in buffer (prepare buffer from 25 mM HEPES (manufactured by HyClone), 5 mM MgCl2 (manufactured by Sigma), 1 mM CaCl2 (manufactured by Sigma), 0.5% BSA, pH 7.4 (manufactured by Gibco)).
# male c57BL/6 mice [1] = experiment: GLP-1 secretion in vivo, 12 hour PK/PD study; parameters: species or system mouse; details: for Active GLP-1 AUC Fold Increase: vs vehicle
# Method: Use male c57BL/6 mice from Harlan Laboratories at 8-9 weeks of age to evaluate the effects of the compound of Example 2 on GLP-1 Secretion in vivo during a 12 hour pharmacokinetic/pharmacodynamic (PK/PD) study. Maintain mice under approved Animal Care and Use protocols for Lilly Research Laboratories and house on a 12 hour light cycle from 6 am to 6 pm. The day prior to the evaluation, fast the mice at 6 pm. The following day at 6 am, measure body weight and administer vehicle (HEC 1%/Tween 80 0.25%/Antifoam 0.05%) or the compound of Example 2 alone in vehicle (HEC 1%/Tween 80 0.25%/Antifoam 0.05% suspension). Collect blood samples for measurement of active GLP-1 levels and plasma exposure (˜150 μl into EDTA coated Sarstedt Microvette® CB300 K2E tubes) at 0.25, 0.5, 1, 2, 4, 6, 9, 12 hours post-administration (only two samples collected from each mouse, euthanizing immediately following the second blood collection) Immediately after collecting the blood, preserve active GLP-1 samples with 5 μl of a mixture of DPP4 inhibitor (Bio Trend Cat. No. DPP-4)/aprotinin (Fisher BioReagents, Cat. No. BP250310), store on wet ice, spin down (3500 rpm, 4° C.). Draw off plasma, plate and freeze. Store GLP-1 samples at −80° C. until they can be analyzed utilizing a Meso Scale Discovery Active GLP-1 (v2) Kit (Cat. No. K150JWC-2). Calculate area under the curve (AUC) values.
# hSSTR5 [2] = target: T2, hSSTR5 (Homo sapiens, UniProt P35346); experiment: β-Arrestin whole cell functional assay (PathHunter CHO-K1 hSSTR5 β-arrestin cells); type: cell-based; parameters: host or cells: CHO-K1 (PathHunter engineered line); details: EC80 agonist 37.5 nM SST14
# Method: A β-arrestin whole cell, functional assay, utilizing U20S cells (human osteosarcoma cells), can directly measure effects of the compound of Example 2 on GPCR activity by determining its effects on the interaction of β-arrestin with the activated GPCR. Perform the CRC measurement of β-arrestin activity utilizing PathHunter CHO-K1 hSSTR5 β-arrestin cells from DiscoveRx (93-0402C2). Plate cells at a concentration of 5K/well in 50 μl of assay plating media in 384-well White Plates with opaque bottom (manufactured by Corning (3570)) and incubate overnight at 37° C./5% CO2. Prepare test solutions by diluting 3 μl of Example 2 with 27 μl of DMSO for a step down dilution. Mix the diluted plate of the current invention on a plate shaker for five minutes. Wash cells with 50 μl of PBS (manufactured by HyClone) three times using a plate washer. After washing, use a Wellmate to add 15 μl of assay buffer (assay buffer prepared from HBSS (manufactured by HyClone), 20 mM HEPES (manufactured by HyClone) with 0.1% BSA (manufactured by Gibco)) to the cells followed by 100 nl of the present invention serial dilution. Incubate the cells at 37° C./5% CO2 for 30 min.
# hSSTR5 [3] = target: T2, hSSTR5; experiment: Somatostatin binding assay (SPA, 125I-Somatostatin 14), human SSTR5 membranes; parameters: purchased Perkin Elmer ES-522-M400UA; host or cells: CHO (the text speaks of CHO-SSTR5 receptors); details: human somatostatin 5 membranes, 0.25 nM [125I]-Somatostatin 14
# Method: as §1
# male c57BL/6 mice [4] = experiment: Oral Glucose Tolerance Test (OGTT): glucose and active GLP-1; type: in vivo, mouse; details: for Active GLP-1 Fold Increase / Glucose % Lowering: vs vehicle
# Method: Maintain mice under approved Animal Care and Use protocols for Lilly Research Laboratories and house on a 12 hour light cycle from 6 am to 6 pm. For the OGTT, fast the mice between 3 & 4 pm. The following day at 6 am, measure body weights and collect baseline blood samples via tail vein for glucose (Roche Aviva glucometer). […] No. […] No. DPP-4)/aprotinin (Fisher BioReagents, Cat. No. BP250310), store on wet ice, spin down (3500 rpm, 4° C.), draw off plasma, plate and freeze. […] No. […]-2). Calculate area under the curve (AUC) values.
# [5] = Example 1 0.3 mg/kg orally 90 min before glucose bolus
# [6] = Example 1 30 mg/kg orally 90 min before glucose bolus
# [7] = Sitagliptin 10 mg/kg orally 90 min before glucose bolus
# T2 sequence (P35346 whole entry): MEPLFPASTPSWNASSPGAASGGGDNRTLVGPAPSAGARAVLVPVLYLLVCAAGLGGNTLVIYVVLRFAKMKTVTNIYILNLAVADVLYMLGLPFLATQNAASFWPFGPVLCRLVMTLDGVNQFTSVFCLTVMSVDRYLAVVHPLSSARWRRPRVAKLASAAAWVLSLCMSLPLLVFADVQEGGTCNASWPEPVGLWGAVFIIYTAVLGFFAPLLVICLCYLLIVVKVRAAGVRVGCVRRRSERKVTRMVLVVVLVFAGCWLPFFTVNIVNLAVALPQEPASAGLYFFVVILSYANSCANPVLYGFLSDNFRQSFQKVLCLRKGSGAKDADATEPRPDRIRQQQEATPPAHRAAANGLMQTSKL
smiles,measurement,setting,value
"CCOc1cc(CN2CCC3(CC2)CN(c2ccc(C(=O)O)cc2)C(=O)N3)c(C2CC2)cc1C [Example 2, 4-[8-[(2-Cyclopropyl-5-ethoxy-4-methyl-phenyl)methyl]-2-oxo-1,3,8-triazaspiro[4.5]decan-3-yl]benzoic acid hydrate]",Ki,mouse SSTR5,4870 pM
same,Active GLP-1 AUC (0-12 hours),"male c57BL/6 mice [1]; 0.3 mg/kg, fasted mice",60.2 ± 2.9 pg/mL-hour
same,Active GLP-1 AUC Fold Increase,male c57BL/6 mice [1]; 0.3 mg/kg,1.9
same,Active GLP-1 AUC (0-12 hours),"male c57BL/6 mice [1]; 1 mg/kg, fasted mice",71.2 ± 3.3 pg/mL-hour
same,Active GLP-1 AUC Fold Increase,male c57BL/6 mice [1]; 1 mg/kg,2.2
same,Active GLP-1 AUC (0-12 hours),"male c57BL/6 mice [1]; 3 mg/kg, fasted mice",72.5 ± 4.3 pg/mL-hour
same,Active GLP-1 AUC Fold Increase,male c57BL/6 mice [1]; 3 mg/kg,2.3
same,Active GLP-1 AUC (0-12 hours),"male c57BL/6 mice [1]; 10 mg/kg, fasted mice",87.3 ± 3.8 pg/mL-hour
same,Active GLP-1 AUC Fold Increase,male c57BL/6 mice [1]; 10 mg/kg,2.7
same,Active GLP-1 AUC (0-12 hours),"male c57BL/6 mice [1]; 30 mg/kg, fasted mice",86.3 ± 4.6 pg/mL-hour
same,Active GLP-1 AUC Fold Increase,male c57BL/6 mice [1]; 30 mg/kg,2.7
same,effect on active GLP-1 (in words),"male c57BL/6 mice [1]; fasted mice, no glucose load",non-glucose dependent effect to increase active GLP-1
same,IC50,hSSTR5 [2],810 pM
same,Ki,hSSTR5 [3],540 pM
"CCOc1cc(CN2CCC3(CC2)CN(c2ccc(C(=O)O)cc2)C(=O)N3)c(C2CC2)cc1C.Cl [Example 1, 4-[8-[(2-Cyclopropyl-5-ethoxy-4-methyl-phenyl)methyl]-2-oxo-1,3,8-triazaspiro[4.5]decan-3-yl]benzoic acid hydrochloride]",Active GLP-1 AUC (0-60 min),male c57BL/6 mice [4]; [5],93.2 ± 15.5 pg/mL-min
same,Glucose AUC (0-60 min),male c57BL/6 mice [4]; [5],7441 ± 612 mg·min/dL
same,Active GLP-1 Fold Increase,male c57BL/6 mice [4]; Example 1 0.3 mg/kg orally,1.8
same,Glucose % Lowering,male c57BL/6 mice [4]; Example 1 0.3 mg/kg orally,23%
same,Active GLP-1 AUC (0-60 min),male c57BL/6 mice [4]; [6],151 ± 14.0 pg/mL-min
same,Glucose AUC (0-60 min),male c57BL/6 mice [4]; [6],5674 ± 360 mg·min/dL
same,Active GLP-1 Fold Increase,male c57BL/6 mice [4]; Example 1 30 mg/kg orally,2.9
same,Glucose % Lowering,male c57BL/6 mice [4]; Example 1 30 mg/kg orally,41%
same,effect on GLP-1 in OGTT (in words),male c57BL/6 mice [4]; OGTT in mice,increased GLP-1 activity
same,effect on glucose in OGTT (in words),male c57BL/6 mice [4]; OGTT in mice,glucose lowering effect
"N[C@@H](CC(=O)N1CCn2c(nnc2C(F)(F)F)C1)Cc1cc(F)c(F)cc1F [Sitagliptin, sitagliptin, reference compound]",Active GLP-1 AUC (0-60 min),male c57BL/6 mice [4]; [7],343 ± 73 pg/mL-min
same,Glucose AUC (0-60 min),male c57BL/6 mice [4]; [7],5308 ± 237 mg·min/dL
same,Active GLP-1 Fold Increase,male c57BL/6 mice [4]; Sitagliptin 10 mg/kg orally,6.6
same,Glucose % Lowering,male c57BL/6 mice [4]; Sitagliptin 10 mg/kg orally,45%
